Measured values as given in patent EP2141163A1, “Substituted thiazolidinones, their production and utilisation as medicine” (Bayer Schering Pharma Aktiengesellschaft, priority 2008, dated 2010).
Where two headings read alike, the source gives them in different places.

Legend:
PLK-1 = biological target: T1, PLK-1 (Homo sapiens, UniProt P53350); assay: PLK-1 enzyme assay at 10 mM ATP (indirect HTRF assay); assay type: biochemical; settings: read-out: Inhibition PLK-1 IC50 [M] (10 mM ATP)
T1 construct: Fusionsprotein bestehend aus GST und Plk (Kinase Domäne 33-345; MW 36 kDa, conc 0,8 µg/µl); GST; made in house; host or cells: Hi5 insect cells
Experimental: PLK Enzym-Assay (10 mM ATP)
Für den Kinaseassay wird aus Insektenzellen (Hi5) exprimiertes, durch Glutathion-Sepharose-Affinitätschromatographie und anschließender Gel-filtration (Suerdex 75) gereinigtes rekombinantes Fusionsprotein bestehend aus GST und Plk (Kinase Domäne 33-345; MW 36 kDa, conc 0,8 µg/µl) verwendet. Aliqots hiervon werden in flüssigem Stickstoff weggefroren und bei -80°C gelagert und nach dem Auftauen nur einmal verwendet.
Bei dem verwendeten Assay handelt es sich um einen indirekten HTRF-Assay, bei dem folgende Materialien und Verfahrensweisen zum Einsatz kamen. Als Substrat für die Kinasereaktion wird das biotinylierte Peptid Btn-Ahx-KKLNRTLSFAEPG-Amid x TFA, von Biosyntan, Probennr.: 6178.1 (C-Terminus in Amidform) verwendet. Hierbei handelt es sich um eine artifizielle Sequenz, die von keinem bekannten Protein abgeleitet wurde.
50 nl der in 100% Dimethylsulfoxid (DMSO) gelösten Testverbindungen (Endkonzentrationen : 0 µM und Konzentrationen im Bereich von 0,001 - 20 µM) werden mit 2 µl Enzym Arbeitslösung (0,039 ng/µl Plk-1 im Arbeitspuffer [25 mM MgCl2; 1mM DTT; 50 mM Hepes pH 7,0; 0,01% NP40; 1x Complete; 0,05% BSA] für 30 min vorinkubiert. Anschließend wird die Kinase-Reaktion durch Zugabe von 3 µl Substratlösung [16,7 mM Adenosintriphosphate (ATP) und 1,4 µM Substratpeptid (Biotin-Ttds- KKLNRTLSFAEPG -NH2)] in Arbeitspuffer gestartet, und nach 30 min durch Zugabe einer Abstopp-Lösung (100 mM EDTA, 100 mM Hepes pH 7,5, 800 mM Potassiumfluoride, 0,12% BSA, 0,4 µM SA-XLent (0,05 µM, von CIS bio international, Marcoule, Frankreich), Eu^3+ Cryptate-conjugated Rabbit anti-Mouse IgG (1,5 nM; ein mit Europiumkryptat markierter Anti-Maus-IgG-Antikörper von CIS bio international, Marcoule, Frankreich), 1 nM Anti-phospho-Serine Kinase (ein phospho-spezifischer Antikörper von Upstate Biotechnology, Dundee, Schottland), gestoppt, und bei 4°C über Nacht inkubiert. Danach wird die Menge des phosphorylierten Substratpeptids durch Messung des Resonanzenergietransfers vom Europium-markierten Antikörperkomplex zum Streptavidine-XLent bestimmt. Zu diesem Zweck wird die Fluoreszenzemission bei 620 nm und 665 nm nach Anregung bei 350 nm in einem HTRF-Messgerät, z. B. Rubystar (BMG Labtechnologies, Offenburg, Deutschland) oder Viewlux (Perkin-Elmer), bestimmt. Das Verhältnis der Emissionen bei 665 nm und bei 620 nm wird als Maß für die Menge des phosphorylierten Substratpeptids verwendet. Die Daten werden normalisiert (Enzymreaktion ohne Inhibitor = 0 % Inhibition, alle anderen Assaykomponenten, aber kein Enzym = 100 % Inhibition), und IC50-Werte werden durch einen 4 Parameter-Fit mit einer hauseigenen Software berechnet.

NCI-H460 = assay: Proliferation assay (crystal violet staining), NCI-H460; assay type: cell-based, human; settings: Homo sapiens, read-out: Inhibition IC50 [M] (NCI-H460)
Experimental: (§1) Kultivierte humane Tumorzellen (MCF7, […] menschliche Mammakarzinomazellen, bezogen von ATCC HTB22; NCI-H460, menschliche nicht kleinzellige Lungenkarzinomazellen, ATCC HTB-177; DU 145, hormonunabhängige menschliche Prostatakarzinomazellen, ATCC HTB-81; HeLa-MaTu, humane Cervixkarzinomazellen, bezogen von EPO-GmbH, Berlin,) werden in einer Dichte von 5000 (MCF7, DU145) bzw. 3000 (NCI-H460, HeLa-MaTu) Zellen/Messpunkt in einer 96-Loch Multititerplatte in 200 µl des entsprechenden Wachstumsmediums ausplattiert. Nach 24 Stunden werden die Zellen einer Platte (Nullpunkt-Platte) mit Kristallviolett gefärbt (s.u.), während das Medium der anderen Platten durch frisches Kulturmedium (200 µl), dem die Testsubstanzen in verschiedenen Konzentrationen (0 µM, sowie im Bereich 0,01 - 30 µM; die finale Konzentration des Lösungsmittels Dimethylsulfoxid beträgt 0,5%) zugesetzt sind, ersetzt. Die Zellen werden für 4 Tage in Anwesenheit der Testsubstanzen inkubiert. Die Zellproliferation wird durch Färbung der Zellen mit Kristallviolett bestimmt: Die Zellen werden durch Zugabe von 20 µl/Messpunkt einer 11%igen Glutaraldehyd-Lösung 15 min bei Raumtemperatur fixiert. Nach dreimaligem Waschen der fixierten Zellen mit Wasser werden die Platten bei Raumtemperatur getrocknet. Die Zellen werden durch Zugabe von 100 µl/Messpunkt einer 0,1%igen Kristallviolett-Lösung (pH durch Zugabe von Essigsäure auf pH3 eingestellt) gefärbt. Nach dreimaligem Waschen der gefärbten Zellen mit Wasser werden die Platten bei Raumtemperatur getrocknet. Der Farbstoff wird durch Zugabe von 100 µl/Messpunkt einer 10%igen Essigsäure-Lösung gelöst. Die Extinktion wird photometrisch bei einer Wellenlänge von 595 nm bestimmt. Die prozentuale Änderung des Zellwachstums wird durch Normalisierung der Messwerte auf die Extinktionwerte der Nullpunktplatte (=0%) und die Extinktion der unbehandelten (0 µM) Zellen (=100%) berechnet. IC50-Werte werden nach einer 4-Parameterkurvenanpassung mit Hilfe eines Firmeneigenen Computerprogramms berechnet.

MCF-7 = assay: Proliferation assay (crystal violet staining), MCF-7; assay type: cell-based, human; settings: Homo sapiens, read-out: Inhibition IC50 [M] (MCF-7)
Experimental: as §1

DU145 = assay: Proliferation assay (crystal violet staining), DU145; assay type: cell-based, human; settings: Homo sapiens, read-out: Inhibition IC50 [M] (DU145)
Experimental: as §1

[1] = 96 h, tumour cell proliferation, 4 days incubation
[2] = MCF7, 96 h, tumour cell proliferation, 4 days incubation
[3] = DU-145, 96 h, tumour cell proliferation, 4 days incubation

T1 sequence (P53350 33-345): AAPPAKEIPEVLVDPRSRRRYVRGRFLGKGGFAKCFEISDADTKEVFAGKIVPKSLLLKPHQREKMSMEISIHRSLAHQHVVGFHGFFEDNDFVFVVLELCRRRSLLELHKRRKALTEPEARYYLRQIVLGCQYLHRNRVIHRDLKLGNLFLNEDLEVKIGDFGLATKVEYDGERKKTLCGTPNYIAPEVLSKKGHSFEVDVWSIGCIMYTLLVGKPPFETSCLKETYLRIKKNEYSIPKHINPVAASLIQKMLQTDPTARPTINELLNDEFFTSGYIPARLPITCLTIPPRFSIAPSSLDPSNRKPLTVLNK

Structure (SMILES)	IC50 (PLK-1)	IC50 (NCI-H460; [1])	IC50 (MCF-7; [2])	IC50 (DU145; [3])	IC50 (PLK-1; comparison with prior art (Tabelle 3))	IC50 (NCI-H460; comparison with prior art (Tabelle 4))	IC50 (MCF-7; MCF7, comparison with prior art (Tabelle 4))	IC50 (DU145; DU-145, comparison with prior art (Tabelle 4))
CCn1c(=O)c(=CNc2ccc3c(c2)c(C2CCN(C)CC2)cn3C)s/c1=C(/C#N)C(=O)NCC(F)(F)F [B118, (Z,E/Z)-2-Cyan-2-[3-ethyl-5-[[[1-methyl-3-(1-methyl-4-piperidinyl)-1H-indol-5-yl]amino]methylen]-4-oxo-2-thiazolidinyliden]-N-(2,2,2-trifluorethyl)acetamid]	2.1e-09 M	1.7e-07 M	2.9e-07 M	8.5e-08 M	–	–	–	–
CCn1c(=O)c(=CNc2ccc3c(c2)c(C2CCN(C4CC4)CC2)cn3C)s/c1=C(/C#N)C(=O)NCC(F)(F)F [B123]	1.2e-08 M	5e-07 M	6.2e-07 M	2.3e-07 M	–	–	–	–
CCn1c(=O)c(=CNc2ccc3c(C4CCN(C)CC4)cn(C)c3c2)s/c1=C(/C#N)C(=O)NCC#N [B130]	1e-09 M	3.7e-07 M	1.4e-07 M	8.4e-08 M	–	–	–	–
CCn1c(=C(C#N)C(=O)NCC(F)(F)F)sc(=CNc2ccc3ccn(CCN4CCCC4)c3c2)c1=O [B132]	3.3e-09 M	4e-07 M	4.5e-07 M	2.2e-07 M	–	–	–	–
CCn1c(=O)c(=CNc2ccc3ncn(C4CCN(C)CC4)c3c2)s/c1=C(/C#N)C(=O)NCC(F)(F)F [B147]	3.1e-09 M	2.4e-07 M	2.4e-07 M	1.3e-07 M	–	–	–	–
CCn1c(=O)c(=CNc2ccc3c(Cl)cn(C4CCN(C)CC4)c3c2)s/c1=C(/C#N)C(=O)NCC#N [B153]	1e-09 M	5.9e-07 M	4.2e-07 M	1.4e-07 M	–	–	–	–
CCn1c(=O)c(=CNc2ccc3ccn(C4CC(C)(C)N(C)C(C)(C)C4)c3c2)s/c1=C(/C#N)C(=O)NCC#N [B162]	3.7e-09 M	3.7e-08 M	1.4e-07 M	3.5e-08 M	–	–	–	–
CCn1c(=O)c(=CNc2ccc3c(Cl)cn([C@H]4CC[C@H](N(C)C)CC4)c3c2)s/c1=C(/C#N)C(=O)NCC#N [B165]	1.3e-09 M	6.1e-07 M	1.7e-07 M	1.8e-07 M	–	–	–	–
CCn1c(=O)c(=CNc2ccc3ccn(C4CCN(C)CC4)c3c2)s/c1=C(/C#N)C(=O)NC(c1ccco1)C(F)(F)F (centres unmarked) [B176]	6.2e-08 M	3.9e-07 M	1.2e-07 M	2.1e-07 M	–	–	–	–
CCn1c(=O)c(=CNc2ccc3c(C(=O)C(C)(C)C)cn(C4CCN(C)CC4)c3c2)s/c1=C(/C#N)C(=O)NCC#N [B183]	4.2e-09 M	3.2e-07 M	1.6e-07 M	1.3e-07 M	–	–	–	–
CCn1c(=C(C#N)C(=O)NCC(F)(F)F)sc(=CNc2cccc(CCN3CCCC3)c2)c1=O [Beispiel 30 aus PCT/EP2005/013418, reference compound]	–	–	–	–	1.1e-07 M	9e-07 M	7e-07 M	6e-07 M
